In US11312754B2, “Sunflower seed protein-derived peptides” (ACCESS BUSINESS GROUP INTERNATIONAL LLC, priority 2019, dated 2022):
Converted amounts (≈) assume the structure as drawn. Where a SMILES comes first, the peptide text is derived from it. Where no end group is shown, it is not given here.

Assays:
human recombinant renin = molecular target: T1, human recombinant renin (Homo sapiens, UniProt P00797); assay: Renin inhibition assay (Renin Inhibitor Screening Assay Kit); format: biochemical; details: individual isolated peptides, 1 mg/mL; read-out: % Inhibition ± SD of renin activity
T1 construct: purchased
T1 sequence (P00797 67-406): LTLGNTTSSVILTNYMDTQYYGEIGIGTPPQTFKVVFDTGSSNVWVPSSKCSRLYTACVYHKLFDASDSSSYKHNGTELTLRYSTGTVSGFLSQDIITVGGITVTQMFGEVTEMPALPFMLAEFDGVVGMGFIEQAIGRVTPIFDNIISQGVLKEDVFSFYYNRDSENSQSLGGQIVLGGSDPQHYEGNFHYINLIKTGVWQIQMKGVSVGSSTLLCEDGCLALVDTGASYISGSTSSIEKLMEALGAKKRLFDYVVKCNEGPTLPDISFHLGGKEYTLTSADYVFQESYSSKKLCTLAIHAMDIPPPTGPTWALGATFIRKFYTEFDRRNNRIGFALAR
Experimental: In vitro inhibitory activity of human recombinant renin is conducted using a Renin Inhibitor Screening Assay Kit. Samples (crude hydrolysate and the protein hydrolysate composition of Fraction 7 of Example 1) are diluted in Tris-HCl buffer (50 mM, pH 8.0, containing 100 mM NaCl) to a final concentration 0.5 mg/mL, and pre-warmed to 37° C. The reaction is initiated by adding renin (10 μL), shaking for 10 s to mix, and incubating at 37° C. for 15 min. Fluorescence intensity (FI) is then recorded at an excitation wavelength of 340 nm and an emission wavelength of 490 nm using a fluorometric microplate reader. The results of the assay are set forth in Table 3 below, expressed as percent inhibition. The procedure set forth above for Examples 18 & 19 is repeated at 1 mg/mL concentrations using samples containing one of the isolated peptides 1-4 of Fraction 7 of Example 1.

ACE = ACE (Homo sapiens, UniProt P12821); assay: ACE inhibition assay (FAPGG substrate); format: biochemical; details: individual isolated peptides
Chain of ACE (P12821 30-1306, species assumed): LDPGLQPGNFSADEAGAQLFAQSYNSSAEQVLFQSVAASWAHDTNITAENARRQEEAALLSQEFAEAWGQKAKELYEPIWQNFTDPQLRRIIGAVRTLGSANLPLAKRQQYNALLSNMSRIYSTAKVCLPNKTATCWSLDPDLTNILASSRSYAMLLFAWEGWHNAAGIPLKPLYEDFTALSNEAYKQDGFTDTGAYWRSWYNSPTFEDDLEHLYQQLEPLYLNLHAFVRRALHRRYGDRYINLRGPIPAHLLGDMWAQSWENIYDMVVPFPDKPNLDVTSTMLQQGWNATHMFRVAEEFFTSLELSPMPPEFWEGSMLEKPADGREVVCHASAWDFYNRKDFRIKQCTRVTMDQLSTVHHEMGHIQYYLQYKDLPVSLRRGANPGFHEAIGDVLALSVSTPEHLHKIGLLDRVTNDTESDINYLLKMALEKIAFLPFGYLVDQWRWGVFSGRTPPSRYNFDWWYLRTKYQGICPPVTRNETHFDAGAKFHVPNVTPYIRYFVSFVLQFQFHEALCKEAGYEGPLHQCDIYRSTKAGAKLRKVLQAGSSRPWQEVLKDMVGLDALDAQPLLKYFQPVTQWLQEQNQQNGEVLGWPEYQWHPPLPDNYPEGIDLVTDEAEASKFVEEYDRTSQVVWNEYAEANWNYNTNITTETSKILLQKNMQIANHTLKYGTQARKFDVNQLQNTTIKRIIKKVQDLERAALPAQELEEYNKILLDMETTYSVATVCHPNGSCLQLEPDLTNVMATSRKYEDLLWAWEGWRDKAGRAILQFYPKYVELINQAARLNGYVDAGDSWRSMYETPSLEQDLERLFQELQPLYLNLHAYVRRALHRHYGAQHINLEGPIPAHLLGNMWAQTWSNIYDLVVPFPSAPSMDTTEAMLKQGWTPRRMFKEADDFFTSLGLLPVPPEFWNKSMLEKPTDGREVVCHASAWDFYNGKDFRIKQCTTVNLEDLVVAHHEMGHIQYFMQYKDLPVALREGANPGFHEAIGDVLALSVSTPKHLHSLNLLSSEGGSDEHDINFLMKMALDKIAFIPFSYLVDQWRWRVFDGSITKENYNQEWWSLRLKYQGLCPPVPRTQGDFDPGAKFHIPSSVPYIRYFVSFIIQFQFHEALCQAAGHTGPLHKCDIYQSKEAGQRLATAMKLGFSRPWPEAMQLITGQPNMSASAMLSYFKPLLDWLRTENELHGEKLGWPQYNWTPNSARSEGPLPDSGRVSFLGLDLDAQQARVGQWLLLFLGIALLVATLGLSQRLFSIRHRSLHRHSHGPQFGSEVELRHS
Experimental: The ability of sample to inhibit in vitro activity of ACE is determined by mixing 1 mL of FAPGG (0.5 mM, dissolved in buffer [50 mM Tris-HCl buffer containing 0.3 M NaCl, pH 7.5]) with 20 μL ACE (1 U/mL, final activity of 20 mU) and 200 μL sample (crude hydrolysate and the protein hydrolysate composition of Fraction 7 of Example 1, each dissolved in buffer to 1 mg/mL). The rate of decrease in absorbance at 345 nm is recorded for 2 min at room temperature. The results of the assay are set forth in Table 3 below, expressed as percent inhibition.
The procedure set forth above for Examples 16 & 17 is repeated using samples containing one of the isolated peptides 1-4 of Fraction 7 of Example 1.

[1] = DPPH radical scavenging assay; details: individual isolated peptides
Experimental: The scavenging activity of crude hydrolysate and the protein hydrolysate composition of Fraction 7 against DPPH is determined by first dissolving samples (crude hydrolysate and the protein hydrolysate composition of Fraction 7 of Example 1) in 0.1 M sodium phosphate buffer, pH 7.0 containing 1% (w/v) Triton X-100. DPPH is dissolved in methanol to a final concentration of 100 μM, and mixed with the samples in the 96-well plate to a final assay concentration of 1 mg/mL. The samples are then incubated at room temperature in the dark for 30 min, and the absorbance read at 517 nm.
The procedure set forth about for Examples 10 & 11 is repeated using samples containing one of the isolated peptides 1-4 of Fraction 7 of Example 1.

[2] = Hydroxyl radical scavenging activity (HRSA) assay; details: individual isolated peptides
Experimental: The hydroxyl radical scavenging activity of crude hydrolysate and the protein hydrolysate composition of Fraction 7 is determined by dissolving samples (crude hydrolysate and the protein hydrolysate composition of Fraction 7 of Example 1) and 1,10-phenanthroline in 0.1 M sodium phosphate buffer (pH 7.4). FeSO4 (3 mM) and 0.01% hydrogen peroxide are separately dissolved in distilled water. An aliquot (50 μL) of samples (final assay concentration of 0.5 mg/mL) or buffer (control) is first added to a clear, flat bottom 96-well plate followed by additions of 50 μL of 1,10-phenanthroline and 50 μL of FeSO4. To initiate reaction in the wells, 50 μL of hydrogen peroxide (H2O2) solution is added to the mixture, which is then covered and incubated at 37° C. for 1 h with shaking. Absorbance is measured at 536 nm every 10 min for a period of 1 h.
The procedure set forth above for Examples 12 & 13 is repeated using samples containing one of the isolated peptides 1-4 of Fraction 7 of Example 1.

Row | Molecule | inhibition at 1000 µg/mL (human recombinant renin) | IC50 (ACE) | IC50 DPPH radical scavenging [1] | IC50 hydrogen (hydroxyl) radical scavenging [2]
1 | CC(C)[C@H](NC(=O)[C@H](Cc1ccccc1)NC(=O)[C@@H](N)Cc1ccc(O)cc1)C(=O)N1CCC[C@H]1C(=O)O [Peptide 1, Tyr-Phe-Val-Pro] (H-YFVP-OH; N-terminus and C-terminus assumed) | -40.5 ± 6.23% | 477 µM | 3850 ± 130 µg/mL (≈ 7.34 mM) | 1930 ± 20 µg/mL (≈ 3.68 mM)
2 | MVWGP [Peptide 3, Met-Val-Trp-Gly-Pro] | -46.4 ± 1.56% | 35.7 µM | 4690 ± 50 µg/mL | 2500 ± 30 µg/mL
3 | SGRDP [Peptide 2, Ser-Gly-Arg-Asp-Pro] | -54.5 ± 1.48% | 961 µM | 28340 ± 380 µg/mL | 1900 ± 80 µg/mL
4 | TGSYTEGWS [Peptide 4, Thr-Gly-Ser-Tyr-Thr-Glu-Gly-Trp-Ser] | 107 ± 17.6% | 557 µM | 4260 ± 30 µg/mL | 1840 ± 10 µg/mL
